ChEMBL document CHEMBL1158149, “(+)-Nortrachelogenin, a new pharmacologically active lignan from Wikstroemia indica” (1979)
Activity calls are given as the source filed them. The rule behind the calls is not given here.

Tests used:
Mus musculus [1] = species on record: Mus musculus; assay: Effect on central nervous system in mouse assessed as prolongation of anesthesia; format: functional
Mus musculus [2] = species on record: Mus musculus; assay: Effect on central nervous system in mouse assessed as tranquilizing activity; format: functional, organism-based
Mus musculus [3] = species on record: Mus musculus; assay: Effect on central nervous system in mouse assessed as muscle relaxant activity; format: functional, organism-based
Oryctolagus cuniculus = species on record: Oryctolagus cuniculus; assay: Effect on central nervous system in rabbit assessed as depression; format: functional, organism-based

COc1cc(C[C@@H]2COC(=O)[C@@]2(O)Cc2ccc(O)c(OC)c2)ccc1O [WIKSTROMOL]
LD50 (Mus musculus [1]): 65 mg/kg | Activity (Mus musculus [2]): inactive | Activity (Mus musculus [3]): inactive | Activity (Oryctolagus cuniculus): Active
